Data: ChEMBL document CHEMBL5244260, “Aldose reductase and protein tyrosine phosphatase 1B inhibitors as a promising therapeutic approach for diabetes mellitus” (Eur J Med Chem, 2020)

How the values were obtained:
[1] = biological target: T1, Tyrosine-protein phosphatase non-receptor type 1 (Homo sapiens, UniProt P18031); experiment: Inhibition of human PTP1B (1 to 411 residues) expressed in Escherichia coli BL21 (DE3) using GNGDpYMPMSPKS as phosphopeptide substrate incubated for 30 mins by malachite green reagent assay
T1 sequence (P18031 whole entry): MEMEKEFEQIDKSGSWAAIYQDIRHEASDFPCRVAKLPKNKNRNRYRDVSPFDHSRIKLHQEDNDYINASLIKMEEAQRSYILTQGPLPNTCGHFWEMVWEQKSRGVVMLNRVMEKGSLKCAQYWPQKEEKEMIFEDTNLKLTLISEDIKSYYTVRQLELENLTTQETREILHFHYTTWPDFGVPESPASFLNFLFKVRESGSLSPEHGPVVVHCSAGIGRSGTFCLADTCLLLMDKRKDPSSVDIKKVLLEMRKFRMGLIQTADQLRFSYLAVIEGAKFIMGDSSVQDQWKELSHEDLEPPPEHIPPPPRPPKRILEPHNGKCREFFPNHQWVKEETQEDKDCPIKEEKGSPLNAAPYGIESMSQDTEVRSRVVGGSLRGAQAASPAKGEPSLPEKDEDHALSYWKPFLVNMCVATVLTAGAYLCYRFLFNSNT

Homo sapiens [2] = species: Homo sapiens; experiment: Selectivity ratio of Ki for PTP1B (unknown origin) to Ki for TCPTP (unknown origin)
[3] = biological target: T1, Tyrosine-protein phosphatase non-receptor type 1; experiment: Inhibition of PTP1B (unknown origin) using OMFP as substrate by fluorescence assay
[4] = biological target: T1, Tyrosine-protein phosphatase non-receptor type 1; experiment: Inhibition of human PTP1B (1 to 321 residues) expressed in Escherichia coli using FDP as substrate
Homo sapiens [5] = species: Homo sapiens; experiment: Selectivity ratio of IC50 for human PTP1B (1 to 321 residues) to IC50 for human CD45 (564 to […] residues)
[6] = biological target: T2, Receptor-type tyrosine-protein phosphatase C (Homo sapiens, UniProt P08575); experiment: Inhibition of human CD45 (564 to […] residues) expressed in Escherichia coli using FDP as substrate incubated for 10 min
T2 sequence (P08575 whole entry): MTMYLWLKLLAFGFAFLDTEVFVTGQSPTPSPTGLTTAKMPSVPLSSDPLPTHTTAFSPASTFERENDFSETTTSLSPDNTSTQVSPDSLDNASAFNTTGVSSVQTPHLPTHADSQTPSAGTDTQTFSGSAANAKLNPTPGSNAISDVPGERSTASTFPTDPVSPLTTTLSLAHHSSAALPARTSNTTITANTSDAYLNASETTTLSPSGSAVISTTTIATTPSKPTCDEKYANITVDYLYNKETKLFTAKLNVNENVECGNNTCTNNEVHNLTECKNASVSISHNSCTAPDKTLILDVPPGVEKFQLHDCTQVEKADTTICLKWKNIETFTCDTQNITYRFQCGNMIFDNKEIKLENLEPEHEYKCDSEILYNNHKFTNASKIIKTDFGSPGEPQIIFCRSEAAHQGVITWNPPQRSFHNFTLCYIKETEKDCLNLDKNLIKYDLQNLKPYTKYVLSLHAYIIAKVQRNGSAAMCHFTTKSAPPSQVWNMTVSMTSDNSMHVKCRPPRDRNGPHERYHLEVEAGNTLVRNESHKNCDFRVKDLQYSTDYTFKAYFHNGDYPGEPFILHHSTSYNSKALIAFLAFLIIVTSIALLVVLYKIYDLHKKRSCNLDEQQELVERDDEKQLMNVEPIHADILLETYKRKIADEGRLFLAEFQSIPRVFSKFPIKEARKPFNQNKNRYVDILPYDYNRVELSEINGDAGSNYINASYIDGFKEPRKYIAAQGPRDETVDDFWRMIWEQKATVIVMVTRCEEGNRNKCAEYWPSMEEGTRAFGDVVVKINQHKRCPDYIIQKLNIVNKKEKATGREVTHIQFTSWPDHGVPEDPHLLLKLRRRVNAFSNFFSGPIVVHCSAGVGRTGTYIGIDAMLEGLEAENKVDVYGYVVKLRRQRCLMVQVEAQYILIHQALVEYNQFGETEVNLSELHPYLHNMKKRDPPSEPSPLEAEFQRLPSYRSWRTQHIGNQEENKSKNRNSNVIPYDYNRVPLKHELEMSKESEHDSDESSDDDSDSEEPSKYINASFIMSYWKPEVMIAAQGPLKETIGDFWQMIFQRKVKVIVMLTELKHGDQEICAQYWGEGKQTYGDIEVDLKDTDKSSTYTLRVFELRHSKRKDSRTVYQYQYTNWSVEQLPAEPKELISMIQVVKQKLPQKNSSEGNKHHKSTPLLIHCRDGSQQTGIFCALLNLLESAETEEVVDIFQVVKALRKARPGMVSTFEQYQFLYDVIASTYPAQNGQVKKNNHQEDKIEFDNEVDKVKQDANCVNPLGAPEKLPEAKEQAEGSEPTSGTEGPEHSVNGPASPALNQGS

[7] = biological target: T1, Tyrosine-protein phosphatase non-receptor type 1; experiment: Inhibition of PTP1B (unknown origin)
[8] = Inhibition of ALR2 in calf lens using D,L-glyceraldehyde as substrate in presence of NADPH by spectrophotometric assay; type: tissue-based, Bos taurus
[9] = biological target: Aldo-keto reductase family 1 member B1 (Homo sapiens, UniProt P15121); experiment: Inhibition of ALR2 (unknown origin)
[10] = Inhibition of ALR2 in rat lens using D,L-glyceraldehyde as substrate in presence of NADPH; type: tissue-based
[11] = biological target: T1, Tyrosine-protein phosphatase non-receptor type 1; experiment: Inhibition of human PTP1B (1 to 298 residues) expressed in Escherichia coli using FDP as substrate by microplate reader

O=C1CN(c2c(O)cc(CC3CCCCC3)cc2F)S(=O)(=O)N1
IC50 [1]: 80 nM

O=C1CN(c2ccc(-c3ccc[nH]3)cc2O)S(=O)(=O)N1
IC50 [1]: 80 nM

O=C(O)C(=O)Nc1sc2c(c1C(=O)O)CCN(CCc1ccccc1)C2
Ratio Ki (Homo sapiens [2]): 2

O=C(c1ccc(CN(Cc2ccc(C(=O)C(F)(F)P(=O)(O)O)cc2)S(=O)(=O)c2cc(F)ccc2F)cc1)C(F)(F)P(=O)(O)O
IC50 [3]: 500 nM

O=C(Cc1ccccc1)C(Cc1ccc(C(F)(F)P(=O)(O)O)cc1)(Cc1ccc(C(F)(F)P(=O)(O)O)cc1)C(=O)Cc1ccccc1
IC50 [4]: 40 nM
Ratio IC50 (Homo sapiens [5]): 250

CS(=O)(=O)Oc1c(Cl)cccc1Cc1ccc(N2CC(=O)NS2(=O)=O)c(O)c1
IC50 [1]: 80 nM

O=C(c1ccccc1)C(Cc1ccc(C(F)(F)P(=O)(O)O)cc1)(Cc1ccc(C(F)(F)P(=O)(O)O)cc1)c1ccccc1
IC50 [4]: 6 nM
IC50 [6]: > 50000 nM

CC(C)(C)OC(=O)COc1ccc(CC2=C(c3c[nH]c4ccccc34)c3ccccc3C(=O)C2=O)cc1
IC50 [7]: 650 nM

COC(=O)C(Cc1ccc(C(F)(F)P(=O)(O)O)cc1)(Cc1ccc(C(F)(F)P(=O)(O)O)cc1)C(=O)OCc1ccccc1
IC50 [4]: 40 nM
Ratio IC50 (Homo sapiens [5]): 250

CCCCCCCC/C(=C/Cn1oc(=O)n(CC(=O)O)c1=O)c1cccc(OCc2nc(-c3ccc(C(F)(F)F)cc3)oc2C)c1
IC50 [7]: 120 nM

O=[N+]([O-])c1ccccc1Sc1ccc(O)cc1
IC50 [8]: 580 nM

CCc1cc(CC(NC(C)=O)C(=O)NCCCCC(=O)N[C@@H](CCSC)C(=O)O)ccc1N(C(=O)C(=O)O)c1ccccc1C(=O)O (stereo not given in full)
IC50 [7]: 77 nM

CCCCCCCC/C(=C\Cn1oc(=O)n(CC(=O)O)c1=O)c1cccc(OCc2nc(-c3ccc(C(F)(F)F)cc3)oc2C)c1
IC50 [7]: 160 nM

Cc1cccc(-c2nn(-c3ccccc3)cc2/C=C2\SC(=S)N(c3ccc(C(=O)NCC(=O)O)cc3)C2=O)c1
IC50 [9]: 60 nM

CC(C(=O)O)N1C(=O)C(=O)N(Cc2ccc(Cl)c(Cl)c2)C1=O (stereo not given)
IC50 [10]: 75 nM

O=C(c1ccccc1)C(Cc1ccc(C(F)(F)P(=O)(O)O)c(Br)c1)c1ccccc1 (stereo not given)
IC50 [4]: 6 nM
IC50 [6]: > 50000 nM

CCCCCCCCCCCCCCCCOc1ccccc1NC(=O)c1ncccc1C(=O)O
IC50 [7]: 140 nM

O=C(O)CCCCO/N=C(\c1cccc(C(F)(F)F)c1)c1ccncn1
IC50 [8]: 12000 nM

CCCCCCCC/C(=C/Cn1oc(=O)[nH]c1=O)c1cccc(OCc2nc(-c3ccc(C(F)(F)F)cc3)oc2C)c1
IC50 [7]: 200 nM

O=C(c1ccc(CN(Cc2ccc(C(=O)C(F)(F)P(=O)(O)O)cc2)S(=O)(=O)c2ccc(Br)cc2OC(F)(F)F)cc1)C(F)(F)P(=O)(O)O
IC50 [3]: 500 nM

CC(C)OC(=O)C(Cc1ccc(C(F)(F)P(=O)(O)O)cc1)(Cc1ccc(C(F)(F)P(=O)(O)O)cc1)C(=O)OC(C)C
IC50 [4]: 40 nM
Ratio IC50 (Homo sapiens [5]): 250

Cc1ccc(S(=O)(=O)N(Cc2ccc(C(=O)C(F)(F)P(=O)(O)O)cc2)Cc2ccc(C(=O)C(F)(F)P(=O)(O)O)cc2)cc1
IC50 [3]: 500 nM

O=C(c1ccccc1)C(Cc1ccc(C(F)(F)P(=O)(O)O)c(Cl)c1)c1ccccc1 (stereo not given)
IC50 [4]: 6 nM
IC50 [6]: > 50000 nM

O=C(O)C(=O)c1sc2c(c1C(=O)O)CCN[C@@H]2CNCc1ccc(O)cc1
IC50 [7]: 200 nM

CCCCCNC(=O)[C@H](Cc1cccc(OCC(=O)O)c1C(=O)O)NC(=O)[C@H](Cc1ccccc1)NC(=O)Oc1ccccc1
IC50 [7]: 870 nM

O=[N+]([O-])c1cc(S(=O)(=O)C(F)(F)F)ccc1Oc1ccc(S(=O)(=O)c2ccc(Oc3ccc(S(=O)(=O)C(F)(F)F)cc3[N+](=O)[O-])cc2)cc1
IC50 [7]: 400 nM

CCc1cc(CC(NC(C)=O)C(=O)NCCCCOc2cc(Cl)cc(O)c2C(=O)OC)ccc1N(C(=O)C(=O)O)c1ccccc1C(=O)O (stereo not given)
Ratio Ki (Homo sapiens [2]): 6

O=P(O)(O)C(F)(F)c1ccc(C[C@](c2ccc(C(F)(F)P(=O)(O)O)cc2)(c2ccc(F)c(F)c2)n2nnc3ccccc32)cc1
IC50 [11]: 13 nM

C/C(=C\Cn1oc(=O)[nH]c1=O)c1cccc(OCc2nc(-c3ccc(C(F)(F)F)cc3)oc2-c2ccccc2)c1
IC50 [7]: 300 nM

CC(C(=O)O)N1C(=O)C(=O)N(Cc2cccc([N+](=O)[O-])c2)C1=O (stereo not given)
IC50 [10]: 2000 nM

COc1ccc2cc(O)c(N3CC(=O)NS3(=O)=O)cc2c1
IC50 [1]: 80 nM

O=P(O)(O)C(F)(F)c1ccc(C[C@](/C=C/c2ccccc2)(c2nc3ccccc3s2)n2nnc3ccccc32)cc1
IC50 [11]: 23 nM

O=C(OCc1ccccc1)C(Cc1ccc(C(F)(F)P(=O)(O)O)cc1)(Cc1ccc(C(F)(F)P(=O)(O)O)cc1)C(=O)OCc1ccccc1
IC50 [4]: 40 nM
Ratio IC50 (Homo sapiens [5]): 250

CC(C)OC(=O)c1cc(CC(Cc2ccc(C(F)(F)P(=O)(O)O)cc2)(C(=O)c2ccccc2)c2ccccc2)ccc1C(F)(F)P(=O)(O)O (stereo not given)
IC50 [4]: 6 nM
IC50 [6]: > 50000 nM

O=C(O)CCCCCO/N=C(\c1ccnnc1)c1cccc(C(F)(F)F)c1
IC50 [8]: 10000 nM

CCCCCCCCCCCCCCOc1ccccc1NC(=O)c1cccc(F)c1C(=O)O
IC50 [7]: 106 nM

COc1cccc2c1C=CC1CC(=O)N(/C=C/CC(=O)O)N=C21 (stereo not given)
IC50 [8]: 3900 nM

CCCCCCCCCCCCCCOc1ccccc1NC(=O)c1c(C(=O)O)cc(Cl)c(Cl)c1Cl
IC50 [7]: 180 nM

O=C(O)CNC(=O)c1ccc(N2C(=O)/C(=C/c3cn(-c4ccccc4)nc3-c3cccc(F)c3)SC2=S)cc1
IC50 [9]: 40 nM

CCCCCCCCc1ccc(-n2c(C)ccc2-c2ccc(O[C@@H](Cc3ccccc3)C(=O)O)cc2)cc1
IC50 [7]: 90 nM

CCCCCCCC/C(=C\Cn1oc(=O)[nH]c1=O)c1cccc(OCc2nc(-c3ccc(C(F)(F)F)cc3)oc2C)c1
IC50 [7]: 400 nM

C/C(=N\NC(=S)Nc1cccc(F)c1)c1ccc2c(c1)NC(=O)CO2
IC50 [9]: 190 nM

Oc1c(Br)cc(-c2ncc(-c3ccccc3)s2)c(Br)c1O
IC50 [7]: 540 nM

C/C(=N\NC(=S)Nc1cccc(Br)c1)c1ccc2c(c1)NC(=O)CO2
IC50 [9]: 520 nM

COc1cccc2c1C=CC1CC(=O)N(C/C=C/C(=O)O)N=C21 (stereo not given)
IC50 [8]: 4250 nM

O=P(O)(O)C(F)(F)c1ccc(C[C@@](c2ccccc2)(c2ccc(C(F)(F)P(=O)(O)O)cc2)n2nnc3ccccc32)cc1
IC50 [11]: 16 nM

CCc1cc(Br)ccc1S(=O)(=O)N(Cc1ccc(C(=O)C(F)(F)P(=O)(O)O)cc1)Cc1ccc(C(=O)C(F)(F)P(=O)(O)O)cc1
IC50 [3]: 500 nM
